Laboratory results published in patent publication US20170029823A1, “TRUNCATED TRK B AND TRK C ANTAGONISTS AND USES THEREOF” (priority 2015, published 2017).
Entries after “also recorded” stand apart in the source; their conditions may differ. Each block holds one molecule with its values, some of them ahead of it.

Tests used:
[1] = test system: RHOP347S (RHOP) transgenic mouse model of retinitis pigmentosa; assay: ONL thickness by FD-OCT after intravitreal injection; type: in vivo; settings: PD98059 intravitreal at post-natal day 17
Protocol: (§1) Intravitreal injections were performed as follows. Briefly, mice were anesthetized with isoflurane, delivered through a gas anesthetic mask. The drugs were delivered using a Hamilton syringe. Injections were done using a surgical microscope to visualize the Hamilton entry into the vitreous chamber and confirm delivery of the injected solution. After the injection, the syringe was left in place for 30 sec and slowly withdrawn from the eye to prevent reflux. Experimental right eyes were injected with the test agents and control left eyes serve as internal control.
(§2) All intravitreal injections delivered 2 μl of the MAPK/ERK inhibitor PD98059 (10 mM stock) or the selective-TrkC antagonist 3F (1 mM stock). Control eyes were injected with 50% DMSO for PD98059 assays or 5% DMSO for the compound 3F assays. Intravitreal injections in wild-type or RHOP-mice were made at post-natal day 17. Experimental time points to measure ONL thinning were set at post-natal days 18, 22, 24 and 28. The end point for analyzing the effect of the compounds on the expression of p-Erk and p-Akt was at post-natal day 18 (24 hours after intravitreal injection).
A noninvasive prototype spectrometer-based FD-OCT system was used to acquire the retinal images. FD-OCT is a noninvasive method that allows time-kinetic studies in the same animal, with axial resolution in tissue nominally better than 4 μm and repeatability of the measurements from B-scans better than 1 μm. Data acquisition was performed using custom software written in C++ for rapid frame grabbing, processing, and display of two-dimensional images. Manual segmentations were used to measure the thicknesses of the mice retinas. Mice were anesthetized using isoflurane/O2 and placed on a platform, and the head was oriented to an angle at which the eye was properly aligned to the optical beam. The pupils were dilated with a topical solution (atropine sulfate 1%; Alcon, Fort Worth, Tex.). Refraction of light at the cornea was cancelled by placing over the eye a generic artificial tear gel. Alignment of the optical system to the […] retina required a few minutes and was followed by rapid acquisition of data (about 5 s/vol). During retinal scanning, three volumes were acquired in different sectors of the retina containing the ON head as landmark.
After processing, three B-scans were randomly selected from each volume. The retinal thickness measurements were performed with Matlab software using the saved data. In each B-scan, the thickness of the nerve fiber layer (NFL)—ganglion cell layer (GCL)—inner plexiform layer (IPL), hereafter referred to as NGI and outer nuclear layer (ONL) was measured at three adjacent points. […]

[2] = test system: p-Erk and p-Akt; assay: p-Erk and p-Akt immunohistochemistry in RHOP retinas after intravitreal injection; type: in vivo, mouse; settings: post-natal day 18, 24 h after intravitreal PD98059, vs vehicle-injected eye
Protocol: as §1
as §2, with “injection). […]” for “injection).”
For each experimental condition, a minimum of 6 images were acquired from 3 sections cut from different areas of the retina (n=3-4 retinas per group). The area of the profiles of the cells expressing p-Akt and p-Erk was measured using ImageJ software. […]

[3] = test system: TNF-α; assay: TNF-α mRNA (PCR) and protein (ELISA) in rMC-1 cells; type: cell-based; settings: NT-3 (10 nM) or LPS (1 μg/ml) for 6 hrs
Text: FIG. 7A-FIG. 7D illustrates development and validation of a TrkC.T1 inhibitor that prevents TrkC.T1-mediated induction of TNF-α FIG. 7A The mRNA levels of TrkC-FL and TrkC.T1 were quantified by PCR, after infection with lentivirus pLKO.Scr (scrambled control) or with pLKO.1 (expressing a unique shRNA (SEQ ID NO: 1) targeting TrkC.T1 mRNA specifically). Results are normalized to reference GAPDH mRNA. Data are expressed as the mean+SEM; n=3 independent experiments each in triplicate. […] FIG. 7B and FIG. 7C In rMC-1 cells the levels of TNF-α mRNA and protein were quantified by PCR or by ELISA after infection with pLKO.1TrkC.T1 or pLKOScr control. NT-3 and LPS treatment induce TNF-α and pLKO.1 prevents it. Data are standardized to untreated control. Average±sem, n=3 independent experiments each in triplicate. FIG. 7D In spinal cord of ALS G93A versus wild type mice the levels of TNF-α mRNA were assessed by quantitative PCR. Results were normalized to GAPDH. Data are expressed as the mean±SEM n=8 independent spinal cords per group. A-F t-test was applied for statistical analysis. * p<0.05, ** p<0.01 versus control. Stars with brackets indicate differences between the indicated groups.
In rMC-1 cells treatment with NT-3 (10 nM) or LPS (1 μg/ml) for 6 hrs increases TNF-α mRNA (FIG. 7B) and protein (FIG. 7C).

[4] = biological target: T1, TrkC.T1 (Rattus norvegicus, UniProt Q03351); assay: p-Erk and p-Akt western blot after NT-3 stimulation in 293-TrkC.T1 cells; type: cell-based; settings: non-infected 293-TrkC.T1 cells, NT-3 4 nM for 10 min
T1 construct: expressed in transfected cells; host or cells: HEK293 (stably transfected subclone 293-TrkC.T1)
Protocol: (§3) FIG. 15A-FIG. 15D illustrates TrkC.T1 directly activates MAPK/Erk in Müller cells. Representative western blots showing the levels of TrkC-FL (140 KDa), TrkC.T1 (110 kDa), p-Erk 1/2 (44 and 42 KDa) and p-Akt (60 KDa) in HEK293 cell expression system and rMC-1 cells, with or without stimulation of 4 nM NT-3 for 10 min. […] FIG. 15B, FIG. 15D Densitometric quantification of p-Erk and p-Akt signal standardized to untreated controls (arbitrary value of 1). The data represent relative protein levels±SEM. n=3 independent experiments. * p<0.05, ** p<0.01 and ***p<0.001.
(§4) HEK293 cells were transfected with human full-length TrkC cDNA (293-TrkC-FL) or with rat TrkC.T1 cDNA (293-TrkC.T1). The cells are stably transfected subclones that express high levels of TrkC-FL or TrkC.T1 receptors and are respectively grown under drug selection (0.5 mg/ml G418 or 1 mg/ml Puromycin).
(§5) All cells types were serum-starved for 1 hour. […]
(§6) Whole retinas either from culture or freshly dissected were collected and added to 200 μL lysis buffer (20 mM Tris-HCl pH 7.5, 137 mM NaCl, 2 mM EDTA, 1% Nonidet P-40) containing a protease inhibitor cocktail (Roche). […] Protein quantities were assessed using the Bradford assay (BioRad), and 40 μg of total protein was mixed with Laemmli buffer, boiled for 5 minutes and loaded onto 10% gels. […] Blots were scanned and quantified using ImageJ software. […]

[5] = biological target: T2, TrkC-FL (Homo sapiens, UniProt Q16288); assay: p-Erk and p-Akt western blot after NT-3 stimulation in 293-TrkC-FL cells; type: cell-based; settings: NT-3 4 nM for 10 min
T2 construct: transfected with human full-length TrkC cDNA (293-TrkC-FL); expressed in transfected cells; host or cells: HEK293 (stably transfected subclone 293-TrkC-FL)
Protocol: as §3, §4, §5, §6

[6] = biological target: T3, endogenous TrkC.T1 in rMC-1 cells (Rattus norvegicus, UniProt Q03351); assay: p-Erk and p-Akt western blot after NT-3 stimulation in rMC-1 cells; type: cell-based; settings: rMC-1 infected and rMC-1 wild-type cells, 4 nM NT-3 for 10 min
T3 construct: endogenous TrkC.T1 mRNA in r-MC-1 cells was silenced; endogenous in cells; host or cells: rMC-1 (Müller glial cell line)
Protocol: as §3
A short hairpin RNA (shRNA) specifically targeting a unique 3′ sequence of the TrkC.T1 mRNA was designed using the DSIR algorithm. The TrkC.T1-targeting shRNA sequence […] (SEQ ID NO: 1), or a scrambled control sequence […] […] TrkC.T1-specific depletion was determined by real-time quantitative PCR and by Western blotting.
as §5, §6

[7] = biological target: human full-length TrkC expressed on HEK293 cells (293-TrkC-FL) (human) (UniProt Q16288); assay: cell-based or functional assay
[8] = biological target: rat TrkC.T1 expressed on HEK293 cells (293-TrkC.T1) (rat) (UniProt Q03351); assay: cell-based or functional assay
Sequence of rat TrkC.T1 expressed on HEK293 cells (293-TrkC.T1) (rat) (Q03351 32-864): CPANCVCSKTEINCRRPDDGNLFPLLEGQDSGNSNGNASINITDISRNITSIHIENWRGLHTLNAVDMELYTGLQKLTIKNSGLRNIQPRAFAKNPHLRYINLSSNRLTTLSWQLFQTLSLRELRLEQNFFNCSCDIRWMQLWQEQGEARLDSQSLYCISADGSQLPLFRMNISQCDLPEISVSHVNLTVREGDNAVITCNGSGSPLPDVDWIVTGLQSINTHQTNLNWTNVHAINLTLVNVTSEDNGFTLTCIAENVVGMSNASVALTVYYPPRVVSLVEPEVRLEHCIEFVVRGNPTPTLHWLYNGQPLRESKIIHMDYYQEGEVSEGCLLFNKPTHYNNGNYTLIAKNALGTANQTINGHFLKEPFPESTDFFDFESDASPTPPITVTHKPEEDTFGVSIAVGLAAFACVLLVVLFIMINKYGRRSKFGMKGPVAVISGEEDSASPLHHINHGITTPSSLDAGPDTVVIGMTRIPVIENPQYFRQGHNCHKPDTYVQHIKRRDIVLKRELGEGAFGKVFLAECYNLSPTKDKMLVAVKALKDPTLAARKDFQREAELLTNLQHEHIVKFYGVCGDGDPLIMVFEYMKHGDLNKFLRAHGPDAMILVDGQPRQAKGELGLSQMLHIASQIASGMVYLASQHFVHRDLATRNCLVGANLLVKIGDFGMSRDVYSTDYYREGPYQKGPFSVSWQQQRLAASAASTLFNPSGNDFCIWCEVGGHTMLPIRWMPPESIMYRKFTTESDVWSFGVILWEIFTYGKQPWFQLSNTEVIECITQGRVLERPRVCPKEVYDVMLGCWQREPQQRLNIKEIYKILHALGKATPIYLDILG

Sequence of human full-length TrkC expressed on HEK293 cells (293-TrkC-FL) (human) (Q16288 32-839): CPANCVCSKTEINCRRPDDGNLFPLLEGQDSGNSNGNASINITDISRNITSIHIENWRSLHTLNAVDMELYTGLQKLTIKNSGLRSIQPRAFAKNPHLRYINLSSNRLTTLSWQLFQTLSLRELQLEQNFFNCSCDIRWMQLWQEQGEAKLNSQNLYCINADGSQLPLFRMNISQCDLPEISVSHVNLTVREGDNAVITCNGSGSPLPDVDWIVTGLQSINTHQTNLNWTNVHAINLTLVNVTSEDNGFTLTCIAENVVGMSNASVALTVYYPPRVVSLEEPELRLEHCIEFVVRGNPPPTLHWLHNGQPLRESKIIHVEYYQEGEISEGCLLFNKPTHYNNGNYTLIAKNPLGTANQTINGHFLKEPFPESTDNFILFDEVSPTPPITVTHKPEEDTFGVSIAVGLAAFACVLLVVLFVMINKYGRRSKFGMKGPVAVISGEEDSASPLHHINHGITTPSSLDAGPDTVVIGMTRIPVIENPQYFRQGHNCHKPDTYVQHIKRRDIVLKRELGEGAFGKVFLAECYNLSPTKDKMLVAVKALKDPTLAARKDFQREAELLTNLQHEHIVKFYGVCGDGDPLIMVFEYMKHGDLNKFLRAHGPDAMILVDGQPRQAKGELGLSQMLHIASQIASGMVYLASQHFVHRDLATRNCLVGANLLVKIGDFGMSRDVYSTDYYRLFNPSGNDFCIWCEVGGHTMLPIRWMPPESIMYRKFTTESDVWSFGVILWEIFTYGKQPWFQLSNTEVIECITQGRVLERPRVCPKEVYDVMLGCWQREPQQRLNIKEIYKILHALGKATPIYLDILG
T2 sequence (Q16288 32-839): as above
T3 sequence (Q03351 32-612 isoform Q03351-5 limits assumed): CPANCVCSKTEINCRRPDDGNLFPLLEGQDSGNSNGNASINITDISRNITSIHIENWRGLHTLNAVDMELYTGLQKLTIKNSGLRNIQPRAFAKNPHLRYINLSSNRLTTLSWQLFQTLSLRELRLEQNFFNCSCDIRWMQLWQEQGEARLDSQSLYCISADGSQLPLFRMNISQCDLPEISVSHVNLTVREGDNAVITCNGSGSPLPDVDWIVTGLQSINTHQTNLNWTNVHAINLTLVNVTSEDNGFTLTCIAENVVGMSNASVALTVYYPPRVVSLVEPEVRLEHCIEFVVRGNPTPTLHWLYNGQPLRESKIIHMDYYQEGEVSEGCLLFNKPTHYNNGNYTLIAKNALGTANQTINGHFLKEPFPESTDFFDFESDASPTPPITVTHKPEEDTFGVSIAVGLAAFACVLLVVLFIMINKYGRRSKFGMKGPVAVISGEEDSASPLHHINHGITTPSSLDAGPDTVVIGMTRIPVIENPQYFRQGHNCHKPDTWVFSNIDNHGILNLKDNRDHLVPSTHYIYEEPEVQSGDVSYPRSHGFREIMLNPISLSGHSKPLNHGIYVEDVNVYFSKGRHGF
T1 sequence (Q03351 32-612 isoform Q03351-5 limits assumed): as above

Molecule: COc1cccc(-c2cc(=O)c3ccccc3o2)c1N [PD98059]
- ONL thickness vs vehicle-injected eye ([1]; RHOP mice, post-natal day 22 (did not reach significant values)): slightly bigger
- ONL thickness vs vehicle-injected eye ([1]; RHOP mice, post-natal day 24): clear protective effect; also recorded: bigger
- ONL thickness vs vehicle-injected eye ([1]; RHOP mice, post-natal day 28): still larger; also recorded: bigger
- ONL thickness vs vehicle-injected eye ([1]; WT mice): No changes
- block of p-Erk in Müller cells [2]: 030%
- p-Erk signal (immunoreactivity) in Müller cells [2]: abolished; also recorded: reduced

- increase in p-Erk levels [4]: ~2 fold
- increase in p-Akt levels [5]: ~1.5
- increase in p-Erk [5]: ~2.5 fold
- levels of p-Akt [6]: did not change
Molecule: neurotrophin-3 [NT-3]
- TNF-α mRNA and protein [3]: increases; also recorded: induce

- p-Akt level (Western blot densitometry) after 4 nM NT-3 for 10 min [7]: 1.5 fold
- p-Erk level (Western blot densitometry) after 4 nM NT-3 for 10 min [7]: 2.5 fold
- p-Erk level (Western blot densitometry) after 4 nM NT-3 for 10 min, non-infected 293-TrkC.T1 cells [8]: 2 fold
B1: neurotrophin-3 (NT-3) (ligand, UniProt P20783 139-257, looked up)
chain: YAEHKSHRGEYSVCDSESLWVTDKSSAIDIRGHQVTVLGEIKTGNSPVKQYFYETRCKEARPVKNGCRGIDDKHWNSQCKTSQTYVRALTSENNKLVGWRWIRIDTSCVCALSRKIGRT
